In US6037361A, “Fluorinated butyric acids and their derivatives as inhibitors of matrix metalloproteinases” (Warner-Lambert Company, priority 1998, dated 2000):

Assays:
[1] = tested on: human ovarian carcinoma xenografts; details: mice bearing human ovarian carcinoma xenografts; cited from earlier work
[2] = biological target: T1, SCD (stromelysin-1 catalytic domain) (Homo sapiens, UniProt P08254); experiment: IC50 versus SCD with thiopeptolide substrate Ac-Pro-Leu-Gly-thioester-Leu-Leu-Gly-OEt; format: biochemical
T1 construct: SCD (stromelysin-1 catalytic domain); made in house; host or cells: Escherichia coli
T1 sequence (P08254 100-272 limits assumed): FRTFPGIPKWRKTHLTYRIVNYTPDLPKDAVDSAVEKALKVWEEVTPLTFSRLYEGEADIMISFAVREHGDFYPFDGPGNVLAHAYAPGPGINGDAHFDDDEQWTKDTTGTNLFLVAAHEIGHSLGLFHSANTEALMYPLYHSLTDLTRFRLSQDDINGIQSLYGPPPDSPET
Method: (§1) Experiments were carried out with the catalytic domains of the proteinases. […] IC50 values were determined using a thiopeptolide substrate, Ac-Pro-Leu-Gly-thioester-Leu-Leu-Gly-OEt (Ye Q. -Z., Johnson L. L., Hupe D. J., and Baragi V., "Purification and Characterization of the Human Stromelysin Catalytic Domain Expressed in Escherichia coli", Biochemistry, 1992;31:11231-11235).

[3] = biological target: GCD (recombinant gelatinase A catalytic domain); experiment: IC50 versus GCD with thiopeptolide substrate Ac-Pro-Leu-Gly-thioester-Leu-Leu-Gly-OEt; format: biochemical
Method: as §1

[4] = tested on: bovine nasal and pig articular cartilage; details: bovine nasal and pig articular cartilage models for arthritis; cited from earlier work

Row | Molecule | tumor burden and survival [1] | IC50 [2] | IC50 [3] | formation of collagen fragments and proteoglycan fragments [4]
1 | CNC(=O)[C@H](Cc1ccccc1)NC(=O)[C@H](CC(C)C)[C@H](CSc1cccs1)C(=O)NO [BB-94] | decreased the tumor burden and prolonged the survival |  |  | 
2 | O=C(O)CC(F)(F)C(=O)c1ccc2oc3ccccc3c2c1 [Example 1, 4-Dibenzofuran-2-yl-3,3-difluoro-4-oxo-butyric acid] |  | 24 µM | 1.95 µM | 
3 | O=C(CC(F)(F)C(=O)O)c1ccc2oc3ccccc3c2c1 [Example 2, 4-Dibenzofuran-2-yl-2,2-difluoro-4-oxo-butric acid] |  | > 100 µM | 93.6 µM | 
4 | TIMP-1: natural endogenous inhibitors of MMPs (TIMPs) |  |  |  | prevented the formation of collagen fragments, but not proteoglycan fragments
